# Measured values from US9006487B2, “Amine-containing lipids and uses thereof” (Massachusetts Institute of Technology, priority 2005, dated 2015).
# Tested on: cos-7 cells
# Experiment: DNA transfection: luciferase expression relative to Lipofectamine 2000
# Assay type: cell-based
# Details: lipid/DNA 2.5 w/w; 300 ng Luciferase DNA per well; luciferase assay after 48 hours
# In short: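 Lipid/DNA complexes, 300 ng luciferase DNA per well at 2.5-25 w/w lipid:DNA, were formed in sodium acetate/Optimem and added to overnight-seeded cos-7 cells. Luciferase was measured by Bright-Glo luminescence after 48 hours and quantified against an enzyme standard curve. Values are expressed as % of Lipofectamine 2000 at 2.5 w/w.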
row,Compound,Luciferase expression as a percentage of that achieved using Lipofectamine 2000 [%]
1,CCCCCCCCCCCCCCCOC(=O)CCN(CCOCC)CCC(=O)OCCCCCCCCCCCCCCC [LG11],0.0
2,CCCCCCCCCCCCCCCOC(=O)CCN(CCC(=O)OCCCCCCCCCCCCCCC)CC(OC)OC [LG13],0.0
3,CCCCCCCCCCCCCCCOC(=O)CCN(CCC(=O)OCCCCCCCCCCCCCCC)CC1CCCO1 (stereo not drawn) [LG15],0.7
4,CCCCCCCCCCCCCCCOC(=O)CCN(CCC(=O)OCCCCCCCCCCCCCCC)CCc1ccc(OC)c(OC)c1 [LG17],0.4
5,CCCCCCCCCCCCCCCOC(=O)CCN(CCCO)CCC(=O)OCCCCCCCCCCCCCCC [LG20],2.0
6,CCCCCCCCCCCCCCCOC(=O)CCN(CCC(=O)OCCCCCCCCCCCCCCC)CC(C)O (stereo not drawn) [LG21],0.1
7,CCCCCCCCCCCCCCCOC(=O)CCN(CCC(=O)OCCCCCCCCCCCCCCC)C[C@H](C)O [LG22],0.2
8,CCCCCCCCCCCCCCCOC(=O)CCN(CCC(=O)OCCCCCCCCCCCCCCC)CC(O)CO (stereo not drawn) [LG24],2.0
9,CCCCCCCCCCCCCCCOC(=O)CCN(CCC(=O)OCCCCCCCCCCCCCCC)C(CO)CO [LG25],15.9

# Same assay, conditions: lipid/DNA 2.5 w/w; 300 ng of DNA per well
row,Compound,"luciferase expression (second part of table, values relative to LIPO2000)"
1,CCCCCCCCCCCCCCCOC(=O)CCN(CCC(=O)OCCCCCCCCCCCCCCC)C(CO)CO [LG25],15.9

# Same assay, conditions: lipid/DNA 5 w/w; 300 ng Luciferase DNA per well; luciferase assay after 48 hours
row,Compound,Luciferase expression as a percentage of that achieved using Lipofectamine 2000 [%]
1,CCCCCCCCCCCCCCCOC(=O)CCN(CCOCC)CCC(=O)OCCCCCCCCCCCCCCC [LG11],0.0
2,CCCCCCCCCCCCCCCOC(=O)CCN(CCC(=O)OCCCCCCCCCCCCCCC)CC(OC)OC [LG13],0.0
3,CCCCCCCCCCCCCCCOC(=O)CCN(CCC(=O)OCCCCCCCCCCCCCCC)CC1CCCO1 (stereo not drawn) [LG15],0.8
4,CCCCCCCCCCCCCCCOC(=O)CCN(CCC(=O)OCCCCCCCCCCCCCCC)CCc1ccc(OC)c(OC)c1 [LG17],0.3
5,CCCCCCCCCCCCCCCOC(=O)CCN(CCCO)CCC(=O)OCCCCCCCCCCCCCCC [LG20],2.5
6,CCCCCCCCCCCCCCCOC(=O)CCN(CCC(=O)OCCCCCCCCCCCCCCC)CC(C)O (stereo not drawn) [LG21],0.1
7,CCCCCCCCCCCCCCCOC(=O)CCN(CCC(=O)OCCCCCCCCCCCCCCC)C[C@H](C)O [LG22],0.3
8,CCCCCCCCCCCCCCCOC(=O)CCN(CCC(=O)OCCCCCCCCCCCCCCC)CC(O)CO (stereo not drawn) [LG24],3.3
9,CCCCCCCCCCCCCCCOC(=O)CCN(CCC(=O)OCCCCCCCCCCCCCCC)C(CO)CO [LG25],32.0

# Same assay, conditions: lipid/DNA 5 w/w; 300 ng of DNA per well
row,Compound,"luciferase expression (second part of table, values relative to LIPO2000)"
1,CCCCCCCCCCCCCCCOC(=O)CCN(CCC(=O)OCCCCCCCCCCCCCCC)C(CO)CO [LG25],32.0

# Same assay, conditions: lipid/DNA 10 w/w; 300 ng Luciferase DNA per well; luciferase assay after 48 hours
row,Compound,Luciferase expression as a percentage of that achieved using Lipofectamine 2000 [%]
1,CCCCCCCCCCCCCCCOC(=O)CCN(CCOCC)CCC(=O)OCCCCCCCCCCCCCCC [LG11],0.0
2,CCCCCCCCCCCCCCCOC(=O)CCN(CCC(=O)OCCCCCCCCCCCCCCC)CC(OC)OC [LG13],0.0
3,CCCCCCCCCCCCCCCOC(=O)CCN(CCC(=O)OCCCCCCCCCCCCCCC)CC1CCCO1 (stereo not drawn) [LG15],0.5
4,CCCCCCCCCCCCCCCOC(=O)CCN(CCC(=O)OCCCCCCCCCCCCCCC)CCc1ccc(OC)c(OC)c1 [LG17],0.1
5,CCCCCCCCCCCCCCCOC(=O)CCN(CCCO)CCC(=O)OCCCCCCCCCCCCCCC [LG20],0.4
6,CCCCCCCCCCCCCCCOC(=O)CCN(CCC(=O)OCCCCCCCCCCCCCCC)CC(C)O (stereo not drawn) [LG21],0.1
7,CCCCCCCCCCCCCCCOC(=O)CCN(CCC(=O)OCCCCCCCCCCCCCCC)C[C@H](C)O [LG22],0.4
8,CCCCCCCCCCCCCCCOC(=O)CCN(CCC(=O)OCCCCCCCCCCCCCCC)CC(O)CO (stereo not drawn) [LG24],4.8
9,CCCCCCCCCCCCCCCOC(=O)CCN(CCC(=O)OCCCCCCCCCCCCCCC)C(CO)CO [LG25],43.2

# Same assay, conditions: lipid/DNA 10 w/w; 300 ng of DNA per well
row,Compound,"luciferase expression (second part of table, values relative to LIPO2000)"
1,CCCCCCCCCCCCCCCOC(=O)CCN(CCC(=O)OCCCCCCCCCCCCCCC)C(CO)CO [LG25],43.2

# Same assay, conditions: lipid/DNA 15 w/w; 300 ng Luciferase DNA per well; luciferase assay after 48 hours
row,Compound,Luciferase expression as a percentage of that achieved using Lipofectamine 2000 [%]
1,CCCCCCCCCCCCCCCOC(=O)CCN(CCOCC)CCC(=O)OCCCCCCCCCCCCCCC [LG11],0.0
2,CCCCCCCCCCCCCCCOC(=O)CCN(CCC(=O)OCCCCCCCCCCCCCCC)CC(OC)OC [LG13],0.0
3,CCCCCCCCCCCCCCCOC(=O)CCN(CCC(=O)OCCCCCCCCCCCCCCC)CC1CCCO1 (stereo not drawn) [LG15],0.6
4,CCCCCCCCCCCCCCCOC(=O)CCN(CCC(=O)OCCCCCCCCCCCCCCC)CCc1ccc(OC)c(OC)c1 [LG17],0.0
5,CCCCCCCCCCCCCCCOC(=O)CCN(CCCO)CCC(=O)OCCCCCCCCCCCCCCC [LG20],0.2
6,CCCCCCCCCCCCCCCOC(=O)CCN(CCC(=O)OCCCCCCCCCCCCCCC)CC(C)O (stereo not drawn) [LG21],0.2
7,CCCCCCCCCCCCCCCOC(=O)CCN(CCC(=O)OCCCCCCCCCCCCCCC)C[C@H](C)O [LG22],0.5
8,CCCCCCCCCCCCCCCOC(=O)CCN(CCC(=O)OCCCCCCCCCCCCCCC)CC(O)CO (stereo not drawn) [LG24],11.2
9,CCCCCCCCCCCCCCCOC(=O)CCN(CCC(=O)OCCCCCCCCCCCCCCC)C(CO)CO [LG25],56.9

# Same assay, conditions: lipid/DNA 15 w/w; 300 ng of DNA per well
row,Compound,"luciferase expression (second part of table, values relative to LIPO2000)"
1,CCCCCCCCCCCCCCCOC(=O)CCN(CCC(=O)OCCCCCCCCCCCCCCC)C(CO)CO [LG25],56.9

# Same assay, conditions: lipid/DNA 20 w/w; 300 ng Luciferase DNA per well; luciferase assay after 48 hours
row,Compound,Luciferase expression as a percentage of that achieved using Lipofectamine 2000 [%]
1,CCCCCCCCCCCCCCCOC(=O)CCN(CCOCC)CCC(=O)OCCCCCCCCCCCCCCC [LG11],0.0
2,CCCCCCCCCCCCCCCOC(=O)CCN(CCC(=O)OCCCCCCCCCCCCCCC)CC(OC)OC [LG13],0.0
3,CCCCCCCCCCCCCCCOC(=O)CCN(CCC(=O)OCCCCCCCCCCCCCCC)CC1CCCO1 (stereo not drawn) [LG15],0.7
4,CCCCCCCCCCCCCCCOC(=O)CCN(CCC(=O)OCCCCCCCCCCCCCCC)CCc1ccc(OC)c(OC)c1 [LG17],0.3
5,CCCCCCCCCCCCCCCOC(=O)CCN(CCCO)CCC(=O)OCCCCCCCCCCCCCCC [LG20],0.1
6,CCCCCCCCCCCCCCCOC(=O)CCN(CCC(=O)OCCCCCCCCCCCCCCC)CC(C)O (stereo not drawn) [LG21],0.2
7,CCCCCCCCCCCCCCCOC(=O)CCN(CCC(=O)OCCCCCCCCCCCCCCC)C[C@H](C)O [LG22],0.4
8,CCCCCCCCCCCCCCCOC(=O)CCN(CCC(=O)OCCCCCCCCCCCCCCC)CC(O)CO (stereo not drawn) [LG24],16.4
9,CCCCCCCCCCCCCCCOC(=O)CCN(CCC(=O)OCCCCCCCCCCCCCCC)C(CO)CO [LG25],42.1

# Same assay, conditions: lipid/DNA 20 w/w; 300 ng of DNA per well
row,Compound,"luciferase expression (second part of table, values relative to LIPO2000)"
1,CCCCCCCCCCCCCCCOC(=O)CCN(CCC(=O)OCCCCCCCCCCCCCCC)C(CO)CO [LG25],42.1

# Same assay, conditions: lipid/DNA 25 w/w; 300 ng Luciferase DNA per well; luciferase assay after 48 hours
row,Compound,Luciferase expression as a percentage of that achieved using Lipofectamine 2000 [%]
1,CCCCCCCCCCCCCCCOC(=O)CCN(CCOCC)CCC(=O)OCCCCCCCCCCCCCCC [LG11],0.0
2,CCCCCCCCCCCCCCCOC(=O)CCN(CCC(=O)OCCCCCCCCCCCCCCC)CC(OC)OC [LG13],0.0
3,CCCCCCCCCCCCCCCOC(=O)CCN(CCC(=O)OCCCCCCCCCCCCCCC)CC1CCCO1 (stereo not drawn) [LG15],0.8
4,CCCCCCCCCCCCCCCOC(=O)CCN(CCC(=O)OCCCCCCCCCCCCCCC)CCc1ccc(OC)c(OC)c1 [LG17],0.3
5,CCCCCCCCCCCCCCCOC(=O)CCN(CCCO)CCC(=O)OCCCCCCCCCCCCCCC [LG20],0.1
6,CCCCCCCCCCCCCCCOC(=O)CCN(CCC(=O)OCCCCCCCCCCCCCCC)CC(C)O (stereo not drawn) [LG21],0.4
7,CCCCCCCCCCCCCCCOC(=O)CCN(CCC(=O)OCCCCCCCCCCCCCCC)C[C@H](C)O [LG22],0.7
8,CCCCCCCCCCCCCCCOC(=O)CCN(CCC(=O)OCCCCCCCCCCCCCCC)CC(O)CO (stereo not drawn) [LG24],32.5
9,CCCCCCCCCCCCCCCOC(=O)CCN(CCC(=O)OCCCCCCCCCCCCCCC)C(CO)CO [LG25],63.9

# Same assay, conditions: lipid/DNA 25 w/w; 300 ng of DNA per well
row,Compound,"luciferase expression (second part of table, values relative to LIPO2000)"
1,CCCCCCCCCCCCCCCOC(=O)CCN(CCC(=O)OCCCCCCCCCCCCCCC)C(CO)CO [LG25],63.9
